# Laboratory results as given in patent US10681909B2, “Herbicidal triazoles” (FMC Corporation, priority 2014, dated 2020).
# Key:
# morningglory = assay: Test C preemergence; type: in vivo, Ipomoea coccinea; conditions: for Plant response rating (scale of 0 to 100 where 0 is no effect and 100 is complete control): Morningglory, preemergence; for Morningglory plant response rating (0 to 100): Preemergence, visual rating after 13 to 15 d
# Procedure, shortened: (§1)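 Test chemicals in a non-phytotoxic solvent mixture with surfactant were applied to pots of plants at 2 to 18 cm (1- to 4-leaf stage) for postemergence treatment, grown in a peat-based medium with vermiculite, starter nutrients and dolomitic limestone. Preemergence treatment was to seeds freshly planted in loam soil mixed with sand.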
# barley, winter = assay: Test D preemergence; type: in vivo, Hordeum vulgare; conditions: for Plant response rating: Barley, Winter: scale 0 to 100
# Source text: (§2) Seeds of plant species selected from bluegrass (annual bluegrass, Poa annua), blackgrass (Alopecurus myosuroides), canarygrass (Phalaris minor), chickweed (common chickweed, Stellaria media), galium (catchweed bedstraw, Galium aparine), bromegrass, down (downy bromegrass, Bromus tectorum), Russian thistle (Salsola kali), field poppy (Papaver rhoeas), field violet (Viola arvensis), foxtail, green (green foxtail, Setaria viridis), deadnettle (henbit deadnettle, Lamium amplexicaule), ryegrass, Ital. (Italian ryegrass, Lolium multiflorum), kochia (Kochia scoparia), lambsquarters (Chenopodium album), oilseed rape (Brassica napus), pigweed (Amaranthus retroflexus), chamomile (scentless chamomile, Matricaria inodora), speedwell (bird's-eye speedwell, Veronica persica), barley, spring (spring barley, Hordeum vulgare), wheat, spring (spring wheat, Triticum aestivum), buckwheat, wild (wild buckwheat, Polygonum convolvulus), wild mustard (Sinapis arvensis), oat, wild (wild oat, Avena fatua), radish, wild (wild radish, Raphanus raphanistrum), […]), barley, winter (winter barley, Hordeum vulgare), and wheat, winter (winter wheat, Triticum aestivum) were planted into a silt loam soil and treated preemergence with test chemicals formulated in a non-phytotoxic solvent mixture which included a surfactant. At the same time, these species were planted in pots containing Sunshine Redi-Earth® planting medium comprising spaghnum peat moss, vermiculite, starter nutrients and dolomitic limestone and treated with postemergence applications of the test chemicals formulated in the same manner. Plants ranged in height from 2 to 18 cm (1- to 4-leaf stage). Treated plants and controls were maintained in a controlled growth environment for 14 to 21 d after which time all species were compared to controls and visually evaluated. […] A dash (-) response means no test result.
# barley, spring = assay: Test D preemergence; type: in vivo, Hordeum vulgare; conditions: for Plant response rating: Barley, Spring: scale 0 to 100
# Source text: as §2
# wild mustard [1] = assay: Test D postemergence; type: in vivo, Sinapis arvensis; conditions: scale 0 to 100
# Source text: as §2
# velvetleaf [2] = assay: Test A preemergence; type: in vivo, Abutilon theophrasti; conditions: Abutilon theophrasti, pre-emergence, 240 h, 0 to 100 scale (0 no effect, 100 complete control), read-out: Plant response rating, Velvetleaf
# Procedure, shortened: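 For preemergence, seeds were sown in a loam soil-sand blend and given a directed soil spray of test chemical in a non-phytotoxic solvent mixture with surfactant. For postemergence, plants in pots of the same blend were sprayed with the same formulation at the one- to two-leaf stage, 2 to 10 cm tall.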
# velvetleaf [3] = assay: Test C preemergence; type: in vivo, Abutilon theophrasti; conditions: for Velvetleaf plant response rating (0 to 100): Preemergence, visual rating after 13 to 15 d; for Plant response rating (scale of 0 to 100 where 0 is no effect and 100 is complete control): Velvetleaf, preemergence, 250 g ai/ha
# Procedure, shortened: as §1
# speedwell = assay: Test D postemergence; type: in vivo, Veronica persica; conditions: scale 0 to 100
# Source text: as §2
# oat, wild = assay: Test D postemergence; type: in vivo, Avena fatua; conditions: scale 0 to 100
# Source text: as §2
# wild mustard [4] = assay: Test D preemergence; type: in vivo, Sinapis arvensis; conditions: for Plant response rating: Mustard, Wild: scale 0 to 100
# Source text: as §2
# pigweed = assay: Test D preemergence; type: in vivo, Amaranthus retroflexus; conditions: for Plant response rating: Pigweed: scale 0 to 100
# Source text: as §2
# lambsquarters = assay: Test C preemergence; type: in vivo, Chenopodium album; conditions: for Plant response rating (scale of 0 to 100 where 0 is no effect and 100 is complete control): Lambsquarters, preemergence; for Lambsquarters plant response rating (0 to 100): Preemergence, visual rating after 13 to 15 d
# Procedure, shortened: as §1
# chamomile = assay: Test D postemergence; type: in vivo, Matricaria inodora; conditions: scale 0 to 100
# Source text: as §2
# bromegrass, down [5] = assay: Test D postemergence; type: in vivo, Bromus tectorum; conditions: scale 0 to 100
# Source text: as §2
# bromegrass, down [6] = assay: Test D preemergence; type: in vivo, Bromus tectorum; conditions: for Plant response rating: Bromegrass, Down: scale 0 to 100
# Source text: as §2
# [7] = 16 g ai/ha, 0 is no effect, 100 is complete control
structure (smiles),measurement,setting,value
"CCOc1nc(-c2ccc(F)cc2)nn1Cc1ccnc(C(F)(F)F)c1 [Compound 8, 4-[[5-ethoxy-3-(4-fluorophenyl)-1H-1,2,4-triazol-1-yl]methyl]-2-(trifluoromethyl)pyridine]",Plant response rating (scale of 0 to 100 where 0 is no effect and 100 is complete control),morningglory; 125 g ai/ha,98
same,Plant response rating (scale of 0 to 100 where 0 is no effect and 100 is complete control),morningglory; 250 g ai/ha,100
same,Morningglory plant response rating (0 to 100),morningglory; 31 g ai/ha,85
same,Morningglory plant response rating (0 to 100),morningglory; 62 g ai/ha,100
same,"Plant response rating: Barley, Winter","barley, winter; 31 g ai/ha",5
same,"Plant response rating: Barley, Winter","barley, winter; 62 g ai/ha",25
same,"Plant response rating: Barley, Winter","barley, winter; 125 g ai/ha",35
same,"Plant response rating: Barley, Winter","barley, winter; 250 g ai/ha",45
same,"Plant response rating: Barley, Spring","barley, spring; 31 g ai/ha",5
same,"Plant response rating: Barley, Spring","barley, spring; 62 g ai/ha",20
same,"Plant response rating: Barley, Spring","barley, spring; 125 g ai/ha",45
same,"Plant response rating: Barley, Spring","barley, spring; 250 g ai/ha",60
same,"Plant response rating: Mustard, Wild",wild mustard [1]; 31 g ai/ha,100
same,"Plant response rating: Mustard, Wild",wild mustard [1]; 62 g ai/ha,100
same,"Plant response rating: Mustard, Wild",wild mustard [1]; 125 g ai/ha,100
same,"Plant response rating: Mustard, Wild",wild mustard [1]; 250 g ai/ha,100
same,pest or weed control at 125 g/ha,velvetleaf [2]; 125 g ai/ha,70%
same,pest or weed control at 500 g/ha,"velvetleaf [2]; 500 g ai/ha, approx. 10 d",90%
same,Velvetleaf plant response rating (0 to 100),velvetleaf [3]; 31 g ai/ha,70
same,Velvetleaf plant response rating (0 to 100),velvetleaf [3]; 62 g ai/ha,85
same,Plant response rating (scale of 0 to 100 where 0 is no effect and 100 is complete control),velvetleaf [3],100
same,Plant response rating: Speedwell,speedwell; 31 g ai/ha,100
same,Plant response rating: Speedwell,speedwell; 62 g ai/ha,100
same,Plant response rating: Speedwell,speedwell; 125 g ai/ha,100
same,Plant response rating: Speedwell,speedwell; 250 g ai/ha,100
same,"Plant response rating: Oat, Wild","oat, wild; 31 g ai/ha",35
same,"Plant response rating: Oat, Wild","oat, wild; 62 g ai/ha",45
same,"Plant response rating: Oat, Wild","oat, wild; 125 g ai/ha",45
same,"Plant response rating: Oat, Wild","oat, wild; 250 g ai/ha",55
same,"Plant response rating: Mustard, Wild",wild mustard [4]; 62 g ai/ha,100
same,"Plant response rating: Mustard, Wild",wild mustard [4]; 125 g ai/ha,100
same,"Plant response rating: Mustard, Wild",wild mustard [4]; 250 g ai/ha,100
same,Plant response rating: Pigweed,pigweed; 62 g ai/ha,100
same,Plant response rating: Pigweed,pigweed; 125 g ai/ha,100
same,Plant response rating: Pigweed,pigweed; 250 g ai/ha,100
same,Plant response rating (scale of 0 to 100 where 0 is no effect and 100 is complete control),lambsquarters; 125 g ai/ha,100
same,Plant response rating (scale of 0 to 100 where 0 is no effect and 100 is complete control),lambsquarters; 250 g ai/ha,100
same,Lambsquarters plant response rating (0 to 100),lambsquarters; 31 g ai/ha,95
same,Lambsquarters plant response rating (0 to 100),lambsquarters; 62 g ai/ha,98
same,Plant response rating: Chamomile,chamomile; 31 g ai/ha,50
same,Plant response rating: Chamomile,chamomile; 62 g ai/ha,50
same,Plant response rating: Chamomile,chamomile; 125 g ai/ha,60
same,Plant response rating: Chamomile,chamomile; 250 g ai/ha,65
same,"Plant response rating: Bromegrass, Down","bromegrass, down [5]; 31 g ai/ha",35
same,"Plant response rating: Bromegrass, Down","bromegrass, down [5]; 62 g ai/ha",45
same,"Plant response rating: Bromegrass, Down","bromegrass, down [5]; 125 g ai/ha",55
same,"Plant response rating: Bromegrass, Down","bromegrass, down [5]; 250 g ai/ha",60
same,"Plant response rating: Bromegrass, Down","bromegrass, down [6]; 31 g ai/ha",10
same,"Plant response rating: Bromegrass, Down","bromegrass, down [6]; 62 g ai/ha",35
same,"Plant response rating: Bromegrass, Down","bromegrass, down [6]; 125 g ai/ha",100
same,"Plant response rating: Bromegrass, Down","bromegrass, down [6]; 250 g ai/ha",100
"CCOc1nc(-c2ccc(C(F)(F)F)cc2)nn1Cc1ccnc(C(F)(F)F)c1 [Compound 35, 4-[[5-ethoxy-3-[4-(trifluoromethyl)phenyl]-1H-1,2,4-triazole-1-yl]methyl]-2-(trifluoromethyl)pyridine]",Plant response rating (scale of 0 to 100 where 0 is no effect and 100 is complete control),morningglory; 125 g ai/ha,80
same,Plant response rating (scale of 0 to 100 where 0 is no effect and 100 is complete control),morningglory; 250 g ai/ha,90
same,Morningglory plant response rating (0 to 100),morningglory; 31 g ai/ha,70
same,Morningglory plant response rating (0 to 100),morningglory; 62 g ai/ha,60
same,"Plant response rating (0 to 100), Barley, Winter","barley, winter; [7]",25
same,"Plant response rating: Barley, Winter","barley, winter; 31 g ai/ha",40
same,"Plant response rating: Barley, Winter","barley, winter; 62 g ai/ha",40
same,"Plant response rating: Barley, Winter","barley, winter; 125 g ai/ha",50
same,"Plant response rating (0 to 100), Barley, Spring","barley, spring; [7]",30
same,"Plant response rating: Barley, Spring","barley, spring; 31 g ai/ha",40
same,"Plant response rating: Barley, Spring","barley, spring; 62 g ai/ha",40
same,"Plant response rating: Barley, Spring","barley, spring; 125 g ai/ha",50
same,"Plant response rating: Mustard, Wild",wild mustard [1]; 16 g ai/ha,70
same,"Plant response rating: Mustard, Wild",wild mustard [1]; 31 g ai/ha,100
same,"Plant response rating: Mustard, Wild",wild mustard [1]; 62 g ai/ha,100
same,"Plant response rating: Mustard, Wild",wild mustard [1]; 125 g ai/ha,100
same,Velvetleaf plant response rating (0 to 100),velvetleaf [3]; 31 g ai/ha,70
same,Velvetleaf plant response rating (0 to 100),velvetleaf [3]; 62 g ai/ha,65
same,Plant response rating (scale of 0 to 100 where 0 is no effect and 100 is complete control),velvetleaf [3],90
same,Plant response rating: Speedwell,speedwell; 16 g ai/ha,75
same,Plant response rating: Speedwell,speedwell; 31 g ai/ha,85
same,Plant response rating: Speedwell,speedwell; 62 g ai/ha,90
same,Plant response rating: Speedwell,speedwell; 125 g ai/ha,100
same,"Plant response rating: Oat, Wild","oat, wild; 16 g ai/ha",40
same,"Plant response rating: Oat, Wild","oat, wild; 31 g ai/ha",65
same,"Plant response rating: Oat, Wild","oat, wild; 62 g ai/ha",75
same,"Plant response rating: Oat, Wild","oat, wild; 125 g ai/ha",80
same,"Plant response rating (0 to 100), Mustard, Wild",wild mustard [4]; [7],70
same,"Plant response rating: Mustard, Wild",wild mustard [4]; 62 g ai/ha,100
same,"Plant response rating: Mustard, Wild",wild mustard [4]; 125 g ai/ha,100
same,"Plant response rating (0 to 100), Pigweed",pigweed; [7],100
same,Plant response rating: Pigweed,pigweed; 62 g ai/ha,100
same,Plant response rating: Pigweed,pigweed; 125 g ai/ha,100
same,Plant response rating (scale of 0 to 100 where 0 is no effect and 100 is complete control),lambsquarters; 125 g ai/ha,100
same,Plant response rating (scale of 0 to 100 where 0 is no effect and 100 is complete control),lambsquarters; 250 g ai/ha,98
same,Lambsquarters plant response rating (0 to 100),lambsquarters; 31 g ai/ha,98
same,Lambsquarters plant response rating (0 to 100),lambsquarters; 62 g ai/ha,98
same,Plant response rating: Chamomile,chamomile; 16 g ai/ha,70
same,Plant response rating: Chamomile,chamomile; 31 g ai/ha,75
same,Plant response rating: Chamomile,chamomile; 62 g ai/ha,95
same,Plant response rating: Chamomile,chamomile; 125 g ai/ha,100
same,"Plant response rating: Bromegrass, Down","bromegrass, down [5]; 16 g ai/ha",40
same,"Plant response rating: Bromegrass, Down","bromegrass, down [5]; 31 g ai/ha",55
same,"Plant response rating: Bromegrass, Down","bromegrass, down [5]; 62 g ai/ha",60
same,"Plant response rating: Bromegrass, Down","bromegrass, down [5]; 125 g ai/ha",75
same,"Plant response rating (0 to 100), Bromegrass, Down","bromegrass, down [6]; [7]",15
same,"Plant response rating: Bromegrass, Down","bromegrass, down [6]; 31 g ai/ha",40
same,"Plant response rating: Bromegrass, Down","bromegrass, down [6]; 62 g ai/ha",60
same,"Plant response rating: Bromegrass, Down","bromegrass, down [6]; 125 g ai/ha",75
